Molecular target: Coagulation factor IX (Homo sapiens, UniProt P00740)
Test: Test substances were dissolved in buffer A (50 mM α,α,α-tris(hydroxymethyl) methylamine (Tris), 100 mM NaCl, 5 mM CaCl2, 15% (v/v) ethylene glycol, pH 8.0) were mixed with factor IXa (0.1 μg/ml final concentration). The enzyme reaction was started by addition of SPECTROFLUOR FIXa (100 μM final concentration).

Chain of Coagulation factor IX (P00740 47-191 limits assumed): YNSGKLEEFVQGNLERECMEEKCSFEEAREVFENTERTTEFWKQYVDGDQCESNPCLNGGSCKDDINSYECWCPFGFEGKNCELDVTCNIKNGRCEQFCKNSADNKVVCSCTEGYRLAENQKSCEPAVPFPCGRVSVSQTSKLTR
Chain of Coagulation factor IX (P00740 227-461 limits assumed): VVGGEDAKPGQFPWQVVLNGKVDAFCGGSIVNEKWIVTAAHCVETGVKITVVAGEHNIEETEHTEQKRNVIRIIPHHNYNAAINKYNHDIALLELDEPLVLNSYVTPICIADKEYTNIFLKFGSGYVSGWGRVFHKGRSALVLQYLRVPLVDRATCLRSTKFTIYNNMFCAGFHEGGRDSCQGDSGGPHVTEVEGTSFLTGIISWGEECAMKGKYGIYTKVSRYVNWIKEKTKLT

Nc1noc2c(N3CCC(NC(=O)c4c(Cl)cc(-n5cnnc5)cc4Cl)(c4ccccc4)C3)cccc12 (stereo unspecified) was tested. Which IC50 did it give?
Its IC50 is less than 100 nM.
